# Activity calls are given as the source filed them.
# How the values were obtained:
# [1] = biological target: Eukaryotic translation initiation factor 4E (Mus musculus, UniProt P63073); experiment: eIF4E–eIF4G protein interaction inhibitors, dose response, biochemical, TR-FRET (AID 855); format: functional;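 further: potency for disrupting eIF4E binding to eIF4GI seen as loss of FRET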
# [2] = biological target: DNA dC->dU-editing enzyme APOBEC-3A (Homo sapiens, UniProt P31941); experiment: Dose Response confirmation of small molecule APOBEC3A DNA Deaminase Inhibitors via a fluorescence-based single-stranded DNA deaminase assay. [Related pubchem assays (depositor defined):AID493011, AID493024]; format: functional
# DNA dC->dU-editing enzyme APOBEC-3A, sequence (P31941 whole entry): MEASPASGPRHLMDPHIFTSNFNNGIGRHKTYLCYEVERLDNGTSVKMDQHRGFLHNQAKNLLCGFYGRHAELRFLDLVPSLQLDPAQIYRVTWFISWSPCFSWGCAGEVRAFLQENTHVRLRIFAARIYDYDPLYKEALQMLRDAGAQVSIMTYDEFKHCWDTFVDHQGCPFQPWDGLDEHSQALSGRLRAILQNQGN
# [3] = biological target: DNA dC->dU-editing enzyme APOBEC-3G (Homo sapiens, UniProt Q9HC16); format: functional;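 further: Dose-response counterscreen measuring inhibition of APOBEC3G DNA deaminase activity, run while confirming APOBEC3A inhibitors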
# DNA dC->dU-editing enzyme APOBEC-3G, sequence (Q9HC16 whole entry): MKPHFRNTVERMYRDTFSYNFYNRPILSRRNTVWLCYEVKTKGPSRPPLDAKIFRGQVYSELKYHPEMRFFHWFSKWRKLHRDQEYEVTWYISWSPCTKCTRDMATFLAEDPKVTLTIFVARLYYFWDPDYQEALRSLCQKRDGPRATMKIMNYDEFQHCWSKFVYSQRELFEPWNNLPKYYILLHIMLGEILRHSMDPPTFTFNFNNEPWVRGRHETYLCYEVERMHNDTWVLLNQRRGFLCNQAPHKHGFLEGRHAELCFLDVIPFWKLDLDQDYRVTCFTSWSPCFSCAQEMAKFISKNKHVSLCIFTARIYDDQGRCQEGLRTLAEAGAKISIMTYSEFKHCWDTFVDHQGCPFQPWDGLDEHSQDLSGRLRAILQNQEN
# Keap1/Nrf2 = Keap1/Nrf2 (Homo sapiens, UniProt Q14145); experiment: Keap1-Nrf2 protein-protein interaction inhibitors, dose response, biochemical, fluorescence polarization, cherry-picked samples (AID 588683)
# Keap1/Nrf2, sequence (Q16236 whole entry, the tested form may be a part): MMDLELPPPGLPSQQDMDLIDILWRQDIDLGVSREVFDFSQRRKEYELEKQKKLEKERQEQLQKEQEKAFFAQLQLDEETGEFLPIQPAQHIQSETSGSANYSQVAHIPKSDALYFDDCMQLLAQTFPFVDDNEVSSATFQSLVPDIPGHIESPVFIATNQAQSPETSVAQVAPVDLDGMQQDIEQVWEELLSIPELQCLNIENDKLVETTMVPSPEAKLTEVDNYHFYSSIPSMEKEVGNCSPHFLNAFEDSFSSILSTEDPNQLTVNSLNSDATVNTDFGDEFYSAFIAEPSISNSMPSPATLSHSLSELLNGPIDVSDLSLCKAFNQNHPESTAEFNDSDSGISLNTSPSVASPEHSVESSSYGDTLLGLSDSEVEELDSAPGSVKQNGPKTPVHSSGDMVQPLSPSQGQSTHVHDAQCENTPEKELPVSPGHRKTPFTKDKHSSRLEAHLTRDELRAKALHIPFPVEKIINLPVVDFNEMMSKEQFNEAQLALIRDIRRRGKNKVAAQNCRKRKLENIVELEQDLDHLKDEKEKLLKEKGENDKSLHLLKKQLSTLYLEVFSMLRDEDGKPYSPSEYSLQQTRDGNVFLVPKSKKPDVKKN
# Keap1/Nrf2, sequence (Q14145 whole entry, the tested form may be a part): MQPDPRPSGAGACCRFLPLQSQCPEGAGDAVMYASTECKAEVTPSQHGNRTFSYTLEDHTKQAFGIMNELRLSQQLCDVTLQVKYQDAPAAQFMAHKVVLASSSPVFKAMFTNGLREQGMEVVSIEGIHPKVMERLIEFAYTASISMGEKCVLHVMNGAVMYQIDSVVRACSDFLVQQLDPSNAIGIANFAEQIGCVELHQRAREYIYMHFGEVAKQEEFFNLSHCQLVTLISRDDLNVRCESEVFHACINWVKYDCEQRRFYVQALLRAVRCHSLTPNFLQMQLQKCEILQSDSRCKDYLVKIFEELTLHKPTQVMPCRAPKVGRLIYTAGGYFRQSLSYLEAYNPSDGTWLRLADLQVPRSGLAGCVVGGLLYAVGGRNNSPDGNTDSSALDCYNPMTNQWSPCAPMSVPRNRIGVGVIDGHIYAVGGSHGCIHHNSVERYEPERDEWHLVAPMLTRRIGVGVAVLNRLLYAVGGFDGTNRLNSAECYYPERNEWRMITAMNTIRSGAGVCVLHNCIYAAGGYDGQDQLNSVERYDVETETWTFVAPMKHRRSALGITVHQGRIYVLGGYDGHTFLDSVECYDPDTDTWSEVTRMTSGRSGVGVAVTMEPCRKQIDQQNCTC
# [4] = biological target: T1, RNA-binding protein pos-1 (Caenorhabditis elegans, UniProt G5EF15); experiment: inhibitors of POS-1/mex-3 RNA binding, dose response, biochemical, fluorescence polarization (AID 1964);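 further: purified POS-1 fused to maltose binding protein made in E. coli; potency of compounds blocking POS-1 binding to fluorescent RNA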
# T1 sequence (G5EF15 whole entry): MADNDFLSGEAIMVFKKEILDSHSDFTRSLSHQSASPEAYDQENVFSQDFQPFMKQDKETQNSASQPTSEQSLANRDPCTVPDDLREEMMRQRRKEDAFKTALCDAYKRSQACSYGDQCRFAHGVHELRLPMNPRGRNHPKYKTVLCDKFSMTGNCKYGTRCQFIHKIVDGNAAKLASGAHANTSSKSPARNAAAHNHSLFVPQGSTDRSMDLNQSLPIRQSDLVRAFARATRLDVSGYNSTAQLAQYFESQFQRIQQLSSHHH
# [5] = biological target: T2, Zinc finger protein mex-5 (Caenorhabditis elegans, UniProt Q9XUB2); experiment: MEX-5/TCR-2 RNA interaction inhibitors, dose response, biochemical, C. elegans, fluorescence polarization (AID 1960)
# T2 sequence (Q9XUB2 whole entry): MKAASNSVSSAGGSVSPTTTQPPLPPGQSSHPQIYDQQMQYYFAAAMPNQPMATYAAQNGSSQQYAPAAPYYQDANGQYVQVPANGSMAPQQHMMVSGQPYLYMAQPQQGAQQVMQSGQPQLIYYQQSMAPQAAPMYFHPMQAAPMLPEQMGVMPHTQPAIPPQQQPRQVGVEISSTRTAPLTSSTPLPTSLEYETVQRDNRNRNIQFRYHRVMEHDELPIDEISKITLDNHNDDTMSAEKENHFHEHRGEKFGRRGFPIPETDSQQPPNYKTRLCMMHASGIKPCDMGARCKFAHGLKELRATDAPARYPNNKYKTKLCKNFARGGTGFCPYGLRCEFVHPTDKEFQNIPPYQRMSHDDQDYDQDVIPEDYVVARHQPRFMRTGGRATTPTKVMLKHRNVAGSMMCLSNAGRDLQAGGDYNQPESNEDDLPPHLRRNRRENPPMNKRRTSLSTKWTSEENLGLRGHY
# [6] = biological target: T3, Replicative DNA helicase DnaB (Mycobacterium tuberculosis, UniProt P9WMR3); experiment: DnaB intein splicing inhibitors, dose response, biochemical, cell-free fluorescence (AID 449749); format: functional
# T3 sequence (P9WMR3 whole entry): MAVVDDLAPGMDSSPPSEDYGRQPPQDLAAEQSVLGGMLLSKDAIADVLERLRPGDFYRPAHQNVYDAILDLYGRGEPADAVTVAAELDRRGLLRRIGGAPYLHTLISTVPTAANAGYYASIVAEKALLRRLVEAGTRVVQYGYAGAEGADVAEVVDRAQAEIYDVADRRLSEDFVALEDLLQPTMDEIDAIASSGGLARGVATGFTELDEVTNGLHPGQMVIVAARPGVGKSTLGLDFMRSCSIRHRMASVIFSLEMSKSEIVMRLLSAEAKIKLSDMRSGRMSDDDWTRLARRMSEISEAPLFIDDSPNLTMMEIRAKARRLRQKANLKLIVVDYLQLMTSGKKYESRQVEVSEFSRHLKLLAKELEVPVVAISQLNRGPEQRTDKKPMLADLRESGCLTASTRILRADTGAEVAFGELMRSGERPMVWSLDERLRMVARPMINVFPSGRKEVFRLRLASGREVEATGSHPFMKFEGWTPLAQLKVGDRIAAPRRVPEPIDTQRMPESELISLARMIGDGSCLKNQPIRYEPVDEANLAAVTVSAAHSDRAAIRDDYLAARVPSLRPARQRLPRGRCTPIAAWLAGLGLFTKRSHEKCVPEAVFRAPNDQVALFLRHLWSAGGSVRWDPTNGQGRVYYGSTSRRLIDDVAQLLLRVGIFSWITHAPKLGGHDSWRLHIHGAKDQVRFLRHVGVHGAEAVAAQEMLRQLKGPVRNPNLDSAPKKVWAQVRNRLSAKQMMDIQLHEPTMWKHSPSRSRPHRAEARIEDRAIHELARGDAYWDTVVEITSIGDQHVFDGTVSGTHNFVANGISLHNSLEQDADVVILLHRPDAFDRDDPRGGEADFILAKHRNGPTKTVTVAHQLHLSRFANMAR
# Protein RecA = biological target: T4, Protein RecA (Mycobacterium tuberculosis, UniProt P9WHJ3); experiment: Fluorescence Cell-Free Homogeneous Dose Retest to Identify Inhibitors of RecA-Intein Splicing Activity. [Related pubchem assays (depositor defined):AID2097, AID2223, AID489010, AID492950]; format: functional
# T4 sequence (P9WHJ3 whole entry): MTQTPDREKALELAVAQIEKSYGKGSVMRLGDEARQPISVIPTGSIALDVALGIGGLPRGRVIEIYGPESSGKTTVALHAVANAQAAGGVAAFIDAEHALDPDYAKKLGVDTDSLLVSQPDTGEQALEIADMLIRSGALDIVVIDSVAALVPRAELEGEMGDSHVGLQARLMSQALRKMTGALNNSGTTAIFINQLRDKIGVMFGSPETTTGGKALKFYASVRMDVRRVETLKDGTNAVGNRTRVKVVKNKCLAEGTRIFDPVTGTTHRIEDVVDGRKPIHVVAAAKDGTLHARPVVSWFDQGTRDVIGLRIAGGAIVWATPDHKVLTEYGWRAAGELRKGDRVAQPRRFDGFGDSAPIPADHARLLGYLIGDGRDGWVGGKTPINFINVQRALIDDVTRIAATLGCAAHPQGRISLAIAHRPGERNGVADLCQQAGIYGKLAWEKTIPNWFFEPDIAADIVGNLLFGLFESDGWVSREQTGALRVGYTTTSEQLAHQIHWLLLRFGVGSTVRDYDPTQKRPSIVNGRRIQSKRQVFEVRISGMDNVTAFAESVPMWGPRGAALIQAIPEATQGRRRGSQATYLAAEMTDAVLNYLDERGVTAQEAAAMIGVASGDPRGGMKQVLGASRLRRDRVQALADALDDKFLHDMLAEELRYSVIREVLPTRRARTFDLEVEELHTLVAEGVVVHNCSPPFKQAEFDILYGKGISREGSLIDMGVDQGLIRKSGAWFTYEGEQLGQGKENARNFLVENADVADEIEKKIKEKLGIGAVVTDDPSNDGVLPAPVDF
# Hexokinase HKDC1 = biological target: T5, Hexokinase HKDC1 (Homo sapiens, UniProt Q2TB90); experiment: HKDC1 hexokinase inhibitors, dose response, biochemical, W721R variant (AID 504729); format: functional
# T5 sequence (Q2TB90 whole entry): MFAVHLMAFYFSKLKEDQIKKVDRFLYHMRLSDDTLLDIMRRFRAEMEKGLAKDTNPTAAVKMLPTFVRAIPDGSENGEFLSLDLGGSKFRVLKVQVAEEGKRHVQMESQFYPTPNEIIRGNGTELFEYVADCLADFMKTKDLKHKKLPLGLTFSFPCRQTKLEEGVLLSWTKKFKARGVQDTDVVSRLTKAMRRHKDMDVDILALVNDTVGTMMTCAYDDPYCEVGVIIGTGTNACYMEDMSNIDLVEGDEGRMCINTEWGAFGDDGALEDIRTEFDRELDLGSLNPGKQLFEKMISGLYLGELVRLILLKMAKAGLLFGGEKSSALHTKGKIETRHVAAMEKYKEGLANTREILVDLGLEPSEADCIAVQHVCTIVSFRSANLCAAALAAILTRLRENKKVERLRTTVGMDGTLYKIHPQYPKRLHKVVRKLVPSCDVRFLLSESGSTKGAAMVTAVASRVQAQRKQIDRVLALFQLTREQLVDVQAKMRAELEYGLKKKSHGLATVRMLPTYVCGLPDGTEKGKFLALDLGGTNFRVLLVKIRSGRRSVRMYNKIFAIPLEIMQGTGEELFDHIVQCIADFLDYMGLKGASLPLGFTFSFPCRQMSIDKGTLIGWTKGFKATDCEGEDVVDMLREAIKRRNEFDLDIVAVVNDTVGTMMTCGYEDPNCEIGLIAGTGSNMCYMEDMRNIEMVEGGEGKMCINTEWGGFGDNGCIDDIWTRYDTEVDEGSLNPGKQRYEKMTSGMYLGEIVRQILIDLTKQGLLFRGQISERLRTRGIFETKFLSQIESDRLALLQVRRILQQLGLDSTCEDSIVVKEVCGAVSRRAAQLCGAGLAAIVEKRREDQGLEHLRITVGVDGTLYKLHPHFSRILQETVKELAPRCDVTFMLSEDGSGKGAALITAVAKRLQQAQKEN
# HEK293 = experiment: cells; details: Homo sapiens;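 further: cells exposed to compound for 14 hours overnight before viability readout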
# Tumor necrosis factor = Tumor necrosis factor (Homo sapiens, UniProt P01375); experiment: TNFa-triggered NF-kB activation inhibitors, SAR follow-up, cell-based, revised (AID 2337); format: functional
# Tumor necrosis factor, sequence (P01375 whole entry): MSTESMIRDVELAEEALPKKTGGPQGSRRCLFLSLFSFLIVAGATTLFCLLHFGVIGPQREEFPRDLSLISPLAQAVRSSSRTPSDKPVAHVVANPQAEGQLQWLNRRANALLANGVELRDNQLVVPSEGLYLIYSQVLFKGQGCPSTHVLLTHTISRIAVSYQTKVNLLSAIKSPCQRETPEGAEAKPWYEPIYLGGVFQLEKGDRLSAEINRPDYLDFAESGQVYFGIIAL
# Eukaryotic translation initiation factor 4E, sequence (P63073 whole entry): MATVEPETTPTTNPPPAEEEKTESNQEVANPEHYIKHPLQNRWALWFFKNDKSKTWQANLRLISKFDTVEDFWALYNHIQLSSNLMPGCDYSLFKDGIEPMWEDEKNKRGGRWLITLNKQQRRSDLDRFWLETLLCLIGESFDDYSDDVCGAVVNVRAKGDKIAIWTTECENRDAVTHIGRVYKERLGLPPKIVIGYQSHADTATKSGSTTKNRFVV
compound,measurement,setting,value
c1csc(-c2nn3c(Cn4cnc5ccccc54)nnc3s2)c1,IC50,cells,< 0.1 µM (active)
same,IC50,[1],> 64 µM (inactive)
O=C(Nc1ccccc1F)c1ccc(CSc2ncccn2)cc1,IC50,[2],4.88 µM (active)
same,IC50,[3],9.71 µM (active)
N#C/C(=C\c1c[nH]c2ccccc12)C(=O)NCC1CCCO1 (stereo not given),IC50,[2],5.69 µM (active)
same,IC50,[3],5.05 µM (active)
CCOC(=O)C1CCN(C(=O)Cc2cccc3ccccc23)CC1,IC50,[2],5.89 µM (active)
same,IC50,[3],5.83 µM (active)
COc1ccc2nc3ccccc3nc2c1NC(=O)c1ccccc1Cl,AC50,Keap1/Nrf2,29.2 µM (active)
same,EC50,[4],> 300 µM (not active)
same,EC50,[5],> 300 µM (not active)
CCOc1ccc(N(CC(=O)Nc2ccccc2)S(C)(=O)=O)cc1,IC50,[2],3.89 µM (active)
same,IC50,[3],4.76 µM (active)
C[n+]1cc(-c2ccccc2)n2c1CCCCC2,IC50,[2],1.66 µM (active)
same,IC50,[3],2.3 µM (active)
CC(C)(C)c1c(Cl)c(O)c(-c2ccccc2)c(=O)n1-c1ccccc1,AC50,[6],20.1 µM (active)
same,IC50,[1],14.1 µM (active)
same,EC50,Protein RecA,27.2 µM (active)
same,IC50,Hexokinase HKDC1,8.83 µM (active)
CSc1ccc(NC(=O)c2ccc(CN3CCCCC3)cc2)cc1,IC50,HEK293,> 20 µM (inactive)
same,IC50,Tumor necrosis factor,19.6 µM (active)
COc1ccc(Br)cc1CNCC1CCCO1 (stereo not given),AC50,Keap1/Nrf2,> 52 µM (inactive)
CC1=C[C@@H]2c3cccc4[nH]cc(c34)C[C@H]2N(C)C1 [AGROCLAVINE],AC50,Keap1/Nrf2,38.4 µM (active)
same,EC50,[4],11.2 µM (active)
same,EC50,[5],8.67 µM (inconclusive)

# — ChEMBL document CHEMBL1201862, “PubChem BioAssay data set” (2004)
